The test system of assay [1] is Candida albicans. The assay is described as follows: Antifungal activity against Candida albicans ATCC 90028 after 48 hrs. Format: functional. The conditions noted are these: ATCC 90028, 48 h.
Assay [2] relates to Candida albicans. The assay is described as follows: Antifungal activity against Candida albicans ATCC 90028 after 24 hrs. The settings on record: ATCC 90028, 24 h. Type of assay: functional.
In assay [3] the test system is Plasmodium falciparum. The assay is described as follows: Antiplasmodial activity after 48 hrs against chloroquine-resistant Plasmodium falciparum FcM29-Cameroon by [3H]hypoxanthine uptake. Format: functional, organism-based.

The values below come from ChEMBL document CHEMBL1137552, “Modifications of the chemical structure of terpenes in antiplasmodial and antifungal drug research” (Bioorg Med Chem Lett, 2007).

Values after ≈ are worked out from the molar mass of the structure shown. A value given as a limit tells only on which side of the number the result lay.

In the case of `C#CCOC/C=C(\C)CCC=C(C)C`, the MIC in assay [1] and in assay [2] was more than 200 µg/mL each time. In addition, the IC50 (as a rule, the concentration that gives 50% inhibition) in assay [3] came to 122 µM.
Take `C#CCOCC1=CC[C@@H](C(=C)C)CC1`: the minimal inhibitory concentration (MIC) in assay [1] and in assay [2] was more than 200 µg/mL in each case. Moreover, 33 µM corresponded to half-maximal inhibition in assay [3] (IC50).
Turning to `C#CCO[C@@H]1C[C@H](C)CC[C@H]1C(=C)C`, the MIC in assay [1] and in assay [2] was more than 200 µg/mL each time. This compound also returned a concentration for half-maximal inhibition (IC50) in assay [3] of 31 µM.
As to `C=C(C)[C@H]1CCC23COC=CC2C3C1` (stereo partly drawn), the MIC in assay [1] and in assay [2] was more than 200 µg/mL each time. This compound also yielded a 50% inhibitory concentration (IC50) in assay [3] of more than 100 µM.
For `CC1CC(=O)O[C@@H]2C[C@H](C)CC[C@@H]12` (stereo partly drawn), the MIC in assay [1] and in assay [2] was more than 200 µg/mL each time. Besides, the IC50 in assay [3] stood at 470 µM.
As for `CC(C)=CCC[C@@]1(C)OCC2=CC(=O)CC21` (stereo partly drawn), the MIC in assay [1] and in assay [2] was more than 200 µg/mL in each case. This compound also gave a concentration for half-maximal inhibition (IC50) in assay [3] of 1.8 µM.
As to `C=CC1=C(C)[C@@H]2CC[C@@H](C)C[C@H]2OC1`, the minimal inhibitory concentration (MIC) in assay [1] and in assay [2] was more than 200 µg/mL in each case. This compound also gave a 50% inhibitory concentration (IC50) in assay [3] of more than 100 µM.
For the compound `C#CCO[C@@](C)(C=C)CCC=C(C)C`, the MIC in assay [1] and in assay [2] was more than 200 µg/mL in each case. This compound showed a 50% inhibitory concentration (IC50) in assay [3] of 39 µM.
Consider `C[C@@H]1CC[C@H]2[C@@H](C)C(=O)O[C@@H]3O[C@@]4(C)CC[C@@H]1[C@]32OO4` [ARTEMISININ], for which the minimum inhibitory concentration (MIC) in assay [1] and in assay [2] was more than 200 µg/mL each time. Besides, in assay [3], 0.007 µM corresponded to half-maximal inhibition (IC50).
Take `CCN(CC)CCCC(C)Nc1ccnc2cc(Cl)ccc12` (stereo not drawn) [CHLOROQUINE]: the minimum inhibitory concentration (MIC) in assay [1] and in assay [2] was more than 200 µg/mL each time.
For `CC(C)=CCCC(C)CCO` (stereo not drawn) [CITRONELLOL], the minimum inhibitory concentration (MIC) in assay [1] and in assay [2] was more than 200 µg/mL in each case. In addition, the IC50 in assay [3] stood at 192 µM.
Consider `C=C(C)[C@H]1CC=C(C)CC1` [D-LIMONENE], for which the minimal inhibitory concentration (MIC) in assay [1] and in assay [2] was more than 200 µg/mL throughout. The same compound had a 50% inhibitory concentration (IC50) in assay [3] of 66 µM.
Regarding `Nc1nc(=O)[nH]cc1F` [FLUCYTOSINE], the lowest concentration to inhibit growth in assay [1] (MIC) was 0.75 µg/mL (≈ 5.81 µM).
For the compound `CC(C)=CCC/C(C)=C/CO` [GERANIOL], the MIC in assay [1] and in assay [2] was more than 200 µg/mL throughout. The compound also yielded a 50% inhibitory concentration (IC50) in assay [3] of 52 µM.
As for `C=C(C)[C@@H]1CC[C@@H](C)C[C@H]1O` [ISOPULEGOL], the minimal inhibitory concentration (MIC) in assay [1] and in assay [2] was more than 200 µg/mL each time. Further, in assay [3], the IC50 is 282 µM.
Regarding `C=CC(C)(O)CCC=C(C)C` (stereo not drawn) [LINALOOL], the MIC in assay [1] and in assay [2] was more than 200 µg/mL in each case. In assay [3], the 50% inhibitory concentration (IC50) came out at 519 µM.
`C=C(C)[C@@H]1CC=C(CO)CC1` [PERILLYL ALCOHOL]: the MIC in assay [1] and in assay [2] was more than 200 µg/mL in each case. In assay [3], inhibition was half-maximal at 184 µM (IC50).
